Results taken from ChEMBL document CHEMBL1201862, “PubChem BioAssay data set” (2004).
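Following 48 hours of exposure in 96-well plates, responses at five concentrations were used to interpolate endpoints linearly. The concentration for 50% growth inhibition is given as GI50.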 Active and inactive are the calls of the source. Cut-off read from the data, not from the text of the source: active = GI50 up to about 1.1 µM and inactive = higher.

What was measured:
Assay in all cases: growth of human tumour cells (NCI), 48 h
[1] = system: RXF 393
[2] = system: HCT-15
[3] = system: Hs-578T
[4] = system: OVCAR-4
[5] = system: SW-620
[6] = system: SNB-19
[7] = system: CCRF-CEM
[8] = system: HL-60
[9] = system: Malme-3M
[10] = system: NCI-H23
[11] = system: SR
[12] = system: HCC 2998
[13] = system: U-251
[14] = system: NCI-H460
[15] = system: EKVX
[16] = system: LOX IMVI
[17] = system: 786-0
[18] = system: SK-MEL-5
[19] = system: ACHN
[20] = system: OVCAR-3

| SMILES | GI50 [1] | GI50 [2] [µM] | GI50 [3] | GI50 [4] | GI50 [5] | GI50 [6] | GI50 [7] | GI50 [8] | GI50 [9] | GI50 [10] | GI50 [11] | GI50 [12] | GI50 [13] | GI50 [14] | GI50 [15] | GI50 [16] | GI50 [17] | GI50 [18] | GI50 [19] | GI50 [20] |
| --- | --- | --- | --- | --- | --- | --- | --- | --- | --- | --- | --- | --- | --- | --- | --- | --- | --- | --- | --- | --- |
| CCOP(=O)(CC(=O)C1CC1)OCC | 0.01 µM (active) | > 100 | > 100 µM (inactive) | > 100 µM (inactive) | > 100 µM (inactive) | > 100 µM (inactive) | > 100 µM (inactive) | > 100 µM (inactive) | > 100 µM (inactive) | > 100 µM (inactive) | > 100 µM (inactive) | > 100 µM (inactive) | > 100 µM (inactive) | > 100 µM (inactive) | > 100 µM (inactive) | > 100 µM (inactive) | > 100 µM (inactive) | > 100 µM (inactive) | > 100 µM (inactive) | – |
| CCOC(=O)c1nc2cc(C(F)(F)F)ccc2nc1Nc1ccc(OC)c(OC)c1 | > 100 µM (inactive) | > 100 | 41.7 µM (inactive) | – | > 100 µM (inactive) | > 100 µM (inactive) | > 100 µM (inactive) | > 100 µM (inactive) | > 100 µM (inactive) | > 100 µM (inactive) | > 100 µM (inactive) | > 100 µM (inactive) | – | > 100 µM (inactive) | > 100 µM (inactive) | > 100 µM (inactive) | > 100 µM (inactive) | > 100 µM (inactive) | > 100 µM (inactive) | > 100 µM (inactive) |
| O=C1Nc2ccc(Br)cc2/C1=N/c1ccc2c(c1)OCO2 | 20.3 µM (inactive) | 19.8 | 30.5 µM (inactive) | 3.72 µM (inactive) | 22.4 µM (inactive) | 74.5 µM (inactive) | 14.7 µM (inactive) | 13.2 µM (inactive) | 18.7 µM (inactive) | 37.2 µM (inactive) | 15.1 µM (inactive) | 15.7 µM (inactive) | 12.7 µM (inactive) | 22.5 µM (inactive) | 25.8 µM (inactive) | 23.1 µM (inactive) | 21.6 µM (inactive) | 16 µM (inactive) | 23.7 µM (inactive) | 22.1 µM (inactive) |
